Assay results: BindingDB's records for doi:10.1021/acs.jmedchem.8b00164 (Athenex, 2018)

Experiments:
[1] = Inhibition of human c-SRC expressed in mouse NIH/3T3 cells assessed as inhibition of cell growth in presence of 1.5% FCS by BrdU incorporation assay
[2] = Inhibition of human c-SRC expressed in mouse NIH/3T3 cells assessed as inhibition of cell growth in presence of 0.5% FCS

IC50 [1] [nM] | IC50 [2] [nM] | Compound
349 | – | O=C(Cc1ccc(-c2ccccc2)cc1)NCc1cccc(F)c1
13 | 6.5 | O=C(Cc1ccc(-c2ccc(OCCN3CCOCC3)cc2)cn1)NCc1ccccc1 [N-benzyl-2-(5-(4-(2-morpholinoethoxy)phenyl)pyridin-2-yl)acetamide]
118 | – | O=C(Cc1ccc(-c2ccc(OCCN3CCOCC3)cc2)cn1)NCc1cccc(F)c1
269 | – | O=C(Cc1ccc(-c2ccccc2)cn1)NCc1cccc(F)c1
